These results are taken from patent US4017607A.

In brackets after ≈: the same amount, converted by molar mass. Like-named read-outs stand apart in the source and are kept apart here.

In experiment [1] the test system is Diplococcus pneumoniae Type III. In words: Minimum inhibitory concentration, serial dilution method. The class given is cell-based. The conditions noted are these: Streptococcus pneumoniae; Diplococcus pneumoniae Type III; 24 hours, 37° C; read-out: Minimum Inhibitory Concentration.
Experiment [2] concerns Corynebacterium diphtheriae Type gravis. Described as above. The conditions noted are these: Corynebacterium diphtheriae Type gravis; 24 hours, 37° C; read-out: Minimum Inhibitory Concentration. The class given is cell-based.
The test system of experiment [3] is Bacillus subtilis PCI 219. The description is as above. In kind it is cell-based. The note with it: PCI219; Bacillus subtilis PCI 219; 24 hours, 37° C; read-out: Minimum Inhibitory Concentration.
Experiment [4] has as its system Staphylococcus aureus Terajima. Described as above. The conditions noted are these: read-out: Minimum Inhibitory Concentration. The class given is cell-based.
Experiment [5] relates to Diplococcus pneumoniae Type I. The experiment is described as above. In kind it is cell-based. The conditions noted are these: Streptococcus pneumoniae; Diplococcus pneumoniae Type I; 24 hours, 37° C; read-out: Minimum Inhibitory Concentration.
Experiment [6] has as its system Streptococcus hemolyticus D-90. The experiment is described as above. The conditions noted are these: Streptococcus pyogenes, D90; Streptococcus hemolyticus D-90; 24 hours, 37° C; read-out: Minimum Inhibitory Concentration. In kind it is cell-based.
For experiment [7], the system named is Bacillus anthracis No. 119. The experiment is described as follows: microbe, parasite or virus in culture. In kind it is cell-based. The note with it: NO.119, 24 h, read-out: Minimum Inhibitory Concentration.
Experiment [8] deals with Streptococcus pyogenes D-58. In words: Minimum inhibitory concentration, serial dilution method. The class given is cell-based. The note with it: D58; Streptococcus pyogenes D-58; 24 hours, 37° C; read-out: Minimum Inhibitory Concentration.
For experiment [9], the system named is Staphylococcus albus 1200A. The experiment is described as above. In kind it is cell-based. The note with it: read-out: Minimum Inhibitory Concentration.
Experiment [10] concerns Corynebacterium diphtheriae Type intermedius. Described as above. The note with it: Corynebacterium diphtheriae Type intermedius; 24 hours, 37° C; read-out: Minimum Inhibitory Concentration. In kind it is cell-based.
Experiment [11] relates to Staphylococcus aureus Smith. The experiment is described as above. In kind it is cell-based. The note with it: read-out: Minimum Inhibitory Concentration.
Another experiment relates to Sarcina lutea. The experiment is described as above. In kind it is cell-based. The note with it: Micrococcus luteus; Sarcina lutea; 24 hours, 37° C; read-out: Minimum Inhibitory Concentration.
The test system of experiment [12] is Bacillus subtilis ATCC 6633. The description is as above. The class given is cell-based. The conditions noted are these: read-out: Minimum Inhibitory Concentration.
Experiment [13] deals with Staphylococcus aureus 209P. In words: Minimum inhibitory concentration, serial dilution method, Brain Heart Infusion broth. The class given is cell-based. The note with it: read-out: Minimum Inhibitory Concentration.
The test system of experiment [14] is Streptococcus hemolyticus Cook. In words: Minimum inhibitory concentration, serial dilution method. The note with it: Streptococcus pyogenes; Streptococcus hemolyticus Cook; 24 hours, 37° C; read-out: Minimum Inhibitory Concentration. The class given is cell-based.
The subject of experiment [15] is Staphylococcus aureus 209P. The note with it: 7th day, 10 mice per group.
Experiment [16] has as its system Streptococcus faecalis ATCC 8043. The experiment is described as follows: Minimum inhibitory concentration, serial dilution method. In kind it is cell-based. The note with it: Enterococcus faecalis, ATCC8043; Streptococcus faecalis ATCC 8043; 24 hours, 37° C; read-out: Minimum Inhibitory Concentration.
Setting [17] is: Staphylococcus aureus Terajima, 24 hours, 37° C.
The mark [18] stands for this setting: Staphylococcus aureus Smith, 24 hours, 37° C.
[19] abbreviates: Bacillus subtilis, ATCC6633, 24 h.
Setting [20] is: Staphylococcus aureus, 209P, 24 h.
Where [21] appears, read: Staphylococcus albus 1200A, 24 hours, 37° C.
Where [22] appears, read: ATCC6633, Bacillus subtilis ATCC 6633, 24 hours, 37° C.
The mark [23] stands for this setting: Staphylococcus aureus 209P, 24 hours, 37° C.

For `CCC(=O)OC1CC(=O)OC(C)CC=CC=CC(OC(C)=O)C(C)CC(CC=O)C(OC2OC(C)C(OC3CC(C)(OC(=O)CC)C(OC(=O)C(C)C)C(C)O3)C(N(C)C)C2O)C1OC` (stereo not drawn) [Compound No. 3], the MIC in [1] was found to be 0.09 µg/mL (≈ 0.0972 µM); in [2], 0.19 µg/mL (≈ 0.205 µM); in experiment [3], 0.78 µg/mL (≈ 0.842 µM); in [4] (setting [17]) it was 3.12 µg/mL (≈ 3.37 µM); in [5], 0.09 µg/mL (≈ 0.0972 µM); in experiment [6], 0.78 µg/mL (≈ 0.842 µM). Further, the MIC in experiment [7] was 1.56 µg/mL (≈ 1.68 µM); in [8], 0.19 µg/mL (≈ 0.205 µM); in experiment [9] (Staphylococcus, 1200A, 24 h) it was 1.56 µg/mL (≈ 1.68 µM); in [10], 0.19 µg/mL (≈ 0.205 µM); in experiment [11] (setting [18]), 0.39 µg/mL (≈ 0.421 µM); in the experiment on Sarcina lutea it was 0.09 µg/mL (≈ 0.0972 µM). Besides, the MIC stood at 1.56 µg/mL (≈ 1.68 µM) in experiment [12] (setting [19]), 1.56 µg/mL (≈ 1.68 µM) in experiment [13] (setting [20]), 1.9 µg/mL (≈ 2.05 µM) in experiment [14] and 0.78 µg/mL (≈ 0.842 µM) in experiment [16]. Also, the “Rate of surviving mice in each group of mice” value (from here on “Rate of surviving mice”) was 4/10 in experiment [15] (100 mg/kg oral) and 10/10 in [15] (200 mg/kg oral).

Take `CCC(=O)OC1CC(=O)OC(C)CC=CC=CC(OC(C)=O)C(C)CC(CC=O)C(OC2OC(C)C(OC3CC(C)(OC(=O)CC)C(OC(=O)CC(C)C)C(C)O3)C(N(C)C)C2O)C1OC` (stereo not drawn) [Compound No. 4]: the MIC in experiment [1] was 0.19 µg/mL (≈ 0.202 µM); in [2], 0.19 µg/mL (≈ 0.202 µM); in experiment [3], 0.78 µg/mL (≈ 0.83 µM); in [4] (Staphylococcus aureus, 24 h), 1.56 µg/mL (≈ 1.66 µM); in experiment [5], 0.39 µg/mL (≈ 0.415 µM); in [6], 0.19 µg/mL (≈ 0.202 µM). The MIC came to 1.56 µg/mL (≈ 1.66 µM) in [7]; 0.19 µg/mL (≈ 0.202 µM) in experiment [8]; 1.56 µg/mL (≈ 1.66 µM) in [9] (Staphylococcus, 1200A, 24 h); 0.19 µg/mL (≈ 0.202 µM) in experiment [10]; 1.56 µg/mL (≈ 1.66 µM) in experiment [11] (Staphylococcus aureus, 24 h); 0.09 µg/mL (≈ 0.0957 µM) in the experiment with Sarcina lutea. Also, the MIC was 1.56 µg/mL (≈ 1.66 µM) in experiment [12] (setting [19]), 1.56 µg/mL (≈ 1.66 µM) in experiment [13] (setting [20]), 0.39 µg/mL (≈ 0.415 µM) in experiment [14] and 0.78 µg/mL (≈ 0.83 µM) in experiment [16]. The “Rate of surviving mice” value is 0/10 in experiment [15] (100 mg/kg oral) and 3/10 in [15] (200 mg/kg oral).

With `CCC(=O)OC1C=CC=CCC(C)OC(=O)CC(OC(=O)CC)C(OC)C(OC2OC(C)C(OC3CC(C)(OC(=O)CC)C(OC(C)=O)C(C)O3)C(N(C)C)C2O)C(CC=O)CC1C` (stereo not drawn) [Compound No. 5], the MIC came to 0.09 µg/mL (≈ 0.0987 µM) in [1]; 0.19 µg/mL (≈ 0.208 µM) in [2]; 1.56 µg/mL (≈ 1.71 µM) in experiment [3]; 3.12 µg/mL (≈ 3.42 µM) in experiment [4] (setting [17]); 0.09 µg/mL (≈ 0.0987 µM) in [5]; 0.78 µg/mL (≈ 0.855 µM) in experiment [6]. In addition, the MIC in experiment [7] came to 0.78 µg/mL (≈ 0.855 µM); in experiment [8], 0.19 µg/mL (≈ 0.208 µM); in experiment [9] (setting [21]), 1.56 µg/mL (≈ 1.71 µM); in experiment [10], 0.19 µg/mL (≈ 0.208 µM); in [11] (setting [18]), 0.78 µg/mL (≈ 0.855 µM); in the experiment on Sarcina lutea it was 0.09 µg/mL (≈ 0.0987 µM). Also, the MIC in [12] (setting [22]) came out at 1.56 µg/mL (≈ 1.71 µM); in experiment [13] (setting [23]), 1.56 µg/mL (≈ 1.71 µM); in experiment [14], 0.39 µg/mL (≈ 0.428 µM); in [16], 0.78 µg/mL (≈ 0.855 µM). In addition, the “Rate of surviving mice” value in [15] (100 mg/kg oral) was 4/10; in [15] (200 mg/kg oral) it was 8/10.

For `CCC(=O)OC1CC(=O)OC(C)CC=CC=CC(OC(C)=O)C(C)CC(CC=O)C(OC2OC(C)C(OC3CC(C)(OC(=O)CC)C(OC(=O)CC)C(C)O3)C(N(C)C)C2O)C1OC` (stereo not drawn) [Compound No. 6], the MIC amounted to 0.09 µg/mL (≈ 0.0987 µM) in experiment [1]; 0.19 µg/mL (≈ 0.208 µM) in [2]; 0.78 µg/mL (≈ 0.855 µM) in [3]; 3.12 µg/mL (≈ 3.42 µM) in experiment [4] (setting [17]); 0.09 µg/mL (≈ 0.0987 µM) in [5]; 0.78 µg/mL (≈ 0.855 µM) in experiment [6]. In addition, the MIC stood at 0.78 µg/mL (≈ 0.855 µM) in experiment [7]; 0.19 µg/mL (≈ 0.208 µM) in experiment [8]; 1.56 µg/mL (≈ 1.71 µM) in experiment [9] (setting [21]); 0.19 µg/mL (≈ 0.208 µM) in experiment [10]; 0.39 µg/mL (≈ 0.428 µM) in [11] (setting [18]); 0.09 µg/mL (≈ 0.0987 µM) in the experiment with Sarcina lutea. Further, the MIC in [12] (setting [22]) came to 1.56 µg/mL (≈ 1.71 µM); in experiment [13] (setting [23]), 1.56 µg/mL (≈ 1.71 µM); in [14] it was 0.19 µg/mL (≈ 0.208 µM); in [16], 0.78 µg/mL (≈ 0.855 µM). For the same compound, the “Rate of surviving mice” value was 6/10 in [15] (100 mg/kg oral) and 10/10 in experiment [15] (200 mg/kg oral).
